From ChEMBL document CHEMBL1149079, “A novel sesquiterpene quinone from Hainan sponge Dysidea villosa” (Bioorg Med Chem Lett, 2009)
Activity calls are given as the source filed them. The calls are words filed in the database; no cut-off is given here.

Columns and labels:
CHO-K1 [1] = assay: Induction of membrane translocation of GLUT4 transporter in CHOK1 cells; assay type: functional, cell-based; details: Cricetulus griseus
[2] = tested on: Human immunodeficiency virus 1; assay: Antiviral activity against HIV1; assay type: functional, organism-based
[3] = molecular target: T1, Tyrosine-protein phosphatase non-receptor type 1 (Homo sapiens, UniProt P18031); assay: Inhibition of human PTP1B
T1 sequence (P18031 whole entry): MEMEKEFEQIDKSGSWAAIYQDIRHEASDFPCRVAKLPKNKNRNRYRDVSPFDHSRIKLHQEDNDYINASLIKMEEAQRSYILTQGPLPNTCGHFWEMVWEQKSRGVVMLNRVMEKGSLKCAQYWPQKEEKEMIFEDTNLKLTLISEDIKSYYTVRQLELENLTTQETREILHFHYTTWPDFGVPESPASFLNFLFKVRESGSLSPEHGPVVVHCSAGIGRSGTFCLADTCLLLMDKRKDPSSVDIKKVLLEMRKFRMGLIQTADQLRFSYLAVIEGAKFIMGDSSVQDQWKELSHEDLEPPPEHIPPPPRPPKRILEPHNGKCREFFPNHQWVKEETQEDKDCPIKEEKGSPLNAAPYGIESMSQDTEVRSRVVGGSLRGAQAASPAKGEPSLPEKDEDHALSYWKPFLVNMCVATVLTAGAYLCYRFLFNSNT

CHO-K1 [4] = assay: Activation of insulin signaling pathway in CHOK1 cells; assay type: functional, cell-based; details: Cricetulus griseus
3T3-L1 [5] = assay: Activation of insulin signaling pathway in mouse 3T3L1 cells; assay type: functional, cell-based
3T3-L1 [6] = assay: Increase in glucose uptake in mouse 3T3L1 cells relative to control; assay type: functional
3T3-L1 [7] = assay: Induction of membrane translocation of GLUT4 transporter in mouse 3T3L1 cells; assay type: functional, cell-based
HeLa = assay: Cytotoxicity against human HeLa cells; assay type: functional, cell-based

Q: Which Activity (CHO-K1 [1]) does the source give for CC1=CCC[C@H]2[C@@H](C)[C@@](C)(CC3=C(O)C(=O)C=C(NCCS(=O)(=O)O)C3=O)CC[C@]12C [DYSIDINE] here?
A: Active

Q: What about the Activity [2] of the same compound?
A: inactive

Q: And the IC50 [3]?
A: 6.7 µM

Q: And the Activity (CHO-K1 [4])?
A: Active

Q: What about the Activity (3T3-L1 [5]) of the same compound?
A: Active

Q: And the Activity (3T3-L1 [6])?
A: 2.3

Q: What about the Activity (3T3-L1 [7]) of the same compound?
A: Active

Q: CC1=CCC[C@H]2[C@](C)(CC3=CC(=O)C=CC3=O)[C@@H](C)CC[C@]12C was tested. Which Activity [2] did it give?
A: inactive

Q: Which Activity [2] does the source give for CC1=CCC[C@H]2[C@](C)(Cc3cc(O)ccc3O)[C@@H](C)CC[C@]12C here?
A: inactive

Q: What does the source list for COC1=CC(=O)C(O)=C(C[C@@]2(C)CC[C@]3(C)C(C)=CCC[C@H]3[C@H]2C)C1=O [BOLINAQUINONE]?
A: Activity [2]: inactive; IC50 (HeLa): 5.45 µM

Q: For COC1=CC(=O)C=C(C[C@@]2(C)CC[C@]3(C)C(C)=CCC[C@H]3[C@H]2C)C1=O, which Activity [2] is on record?
A: inactive

Q: And the IC50 [3]?
A: 39.5 µM

Q: And the IC50 (HeLa)?
A: 19.4 µM
